The values below come from patent publication US20230348376A1 (TEIJIN PHARMA LIMITED, priority 2020, published 2023).

SMILES strings stand for the structures.

The first assay deals with T1, human VDR (Homo sapiens, UniProt P11473).
T1 sequence (P11473 1-427): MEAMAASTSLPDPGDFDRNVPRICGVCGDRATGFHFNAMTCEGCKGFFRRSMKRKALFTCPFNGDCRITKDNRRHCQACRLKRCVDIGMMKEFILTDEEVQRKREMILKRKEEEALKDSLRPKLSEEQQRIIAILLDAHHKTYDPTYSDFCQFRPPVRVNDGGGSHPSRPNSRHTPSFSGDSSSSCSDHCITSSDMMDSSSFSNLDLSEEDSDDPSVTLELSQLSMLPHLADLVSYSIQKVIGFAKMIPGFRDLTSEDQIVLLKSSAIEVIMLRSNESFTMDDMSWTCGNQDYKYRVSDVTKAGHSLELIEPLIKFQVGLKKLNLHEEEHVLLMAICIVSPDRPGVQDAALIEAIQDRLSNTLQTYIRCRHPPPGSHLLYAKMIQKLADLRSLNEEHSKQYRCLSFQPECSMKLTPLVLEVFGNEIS
T1 sequence (P19793 1-462 partner): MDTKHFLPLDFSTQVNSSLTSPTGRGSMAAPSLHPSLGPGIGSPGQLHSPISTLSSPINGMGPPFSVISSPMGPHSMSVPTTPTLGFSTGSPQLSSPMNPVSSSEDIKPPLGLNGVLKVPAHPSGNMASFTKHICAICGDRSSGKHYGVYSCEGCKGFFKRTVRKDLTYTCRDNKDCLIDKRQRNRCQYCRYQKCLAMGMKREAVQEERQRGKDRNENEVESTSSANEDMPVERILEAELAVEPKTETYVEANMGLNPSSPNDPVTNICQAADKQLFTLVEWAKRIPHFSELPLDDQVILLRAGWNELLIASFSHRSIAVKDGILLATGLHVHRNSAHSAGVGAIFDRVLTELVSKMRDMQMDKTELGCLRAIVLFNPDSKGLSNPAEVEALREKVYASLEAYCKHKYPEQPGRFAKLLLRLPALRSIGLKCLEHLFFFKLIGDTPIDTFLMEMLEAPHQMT
Briefly: Evaluation of VDR transcription activity in human osteoblasts (HOS cells), luciferase reporter. As to conditions: Activity (EC50, VDR transcription activity), HOS cells transfected with human VDR, human RXRα and DR3 luciferase reporter; 21 hours.
Take `C=C1/C(=C\C=C2/CCC[C@]3(C)[C@@H]([C@H](C)CN4CCC(O)(C(F)(F)F)C4)CC[C@@H]23)C[C@@H](O)C[C@@H]1O` (single isomer, unassigned) [Compound B044a]: the EC50 was less than 1 nM.
`C=C1[C@H](O)CC(=C/C=C2\CCC[C@]3(C)[C@@H]([C@H](C)CN4CCC(O)(C(F)(F)F)C4)CC[C@@H]23)C[C@H]1O` (single isomer, unassigned) [Compound B046a] registered an EC50 of less than 1 nM.
`C=C1/C(=C\C=C2/CCC[C@]3(C)[C@@H]([C@H](C)CN4CCCC(O)(C(F)(F)F)C4)CC[C@@H]23)C[C@@H](O)C[C@@H]1O` (single isomer, unassigned) [Compound C030b] showed an EC50 of 1 to 10 nM.
In turn, `C=C1/C(=C\C=C2/CCC[C@]3(C)[C@@H]([C@H](C)CN4CCCC(O)(C(F)(F)F)C4)CC[C@@H]23)C[C@@H](O)[C@H](C)[C@@H]1O` (single isomer, unassigned) [Compound C031a] showed a half-maximal effective concentration (EC50) of less than 1 nM.
In turn, `C=C1/C(=C\C=C2/CCC[C@]3(C)[C@@H]([C@H](C)CN4CCCC(O)(C(F)(F)F)C4)CC[C@@H]23)C[C@@H](O)[C@H](C)[C@@H]1O` (single isomer, unassigned) [Compound C031b] displayed an EC50 of 1 to 10 nM.
`C=C1/C(=C\C=C2/CCC[C@]3(C)[C@@H]([C@@H](C)CN4CCCC(O)(C(F)(F)F)C4)CC[C@@H]23)C[C@@H](O)C[C@@H]1O` (single isomer, unassigned) [Compound C033a] displayed an EC50 of less than 1 nM.
As for `C=C1/C(=C\C=C2/CCC[C@]3(C)[C@@H]([C@@H](C)CN4CCCC(O)(C(F)(F)F)C4)CC[C@@H]23)C[C@@H](O)C[C@@H]1O` (single isomer, unassigned) [Compound C033b], the EC50 was 1 to 10 nM.
Compound `C=C1/C(=C\C=C2/CCC[C@]3(C)[C@@H]([C@H](C)CN4CCCC(O)(C(F)F)C4)CC[C@@H]23)C[C@@H](O)C[C@@H]1O` (single isomer, unassigned) [Compound C034a] returned a concentration for a half-maximal effect (EC50) of less than 1 nM.
On the same count and under the same terms, the value for `C=C1/C(=C\C=C2/CCC[C@]3(C)[C@@H]([C@H](C)CN4CCCC(O)(C(F)F)C4)CC[C@@H]23)C[C@@H](O)C[C@@H]1O` (single isomer, unassigned) [Compound C034b] was 10 to 100 nM; that for `C[C@H](CN1CCCC(O)(C(F)F)C1)[C@H]1CC[C@H]2/C(=C/C=C3C[C@@H](O)C[C@H](O)C3)CCC[C@]12C` (single isomer, unassigned) [Compound C035b] was 10 to 100 nM; that for `C=C1/C(=C\C=C2/CCC[C@]3(C)[C@@H]([C@H](C)CN4CCCC(C)(O)C4)CC[C@@H]23)C[C@@H](O)C[C@@H]1O` (single isomer, unassigned) [Compound C037a] was less than 1 nM.
`C=C1/C(=C\C=C2/CCC[C@]3(C)[C@@H]([C@H](C)CN4CCCC(C)(O)C4)CC[C@@H]23)C[C@@H](O)C[C@@H]1O` (single isomer, unassigned) [Compound C037b] displayed an EC50 of 10 to 100 nM.
The same measure, in the same setting: the result for `C=C1/C(=C\C=C2/CCC[C@]3(C)[C@@H]([C@H](C)CN4CCCC(O)(CC)C4)CC[C@@H]23)C[C@@H](O)C[C@@H]1O` (single isomer, unassigned) [Compound C042a] reads less than 1 nM; that for `C=C1/C(=C\C=C2/CCC[C@]3(C)[C@@H]([C@H](C)CN4CCCC(C)(OC)C4)CC[C@@H]23)C[C@@H](O)C[C@@H]1O` (single isomer, unassigned) [Compound C043a], 1 to 10 nM.
With `C=C1/C(=C\C=C2/CCC[C@]3(C)[C@@H]([C@H](C)CN4CCCC(C)(OC)C4)CC[C@@H]23)C[C@@H](O)C[C@@H]1O` (single isomer, unassigned) [Compound C043b], the EC50 was in the range of 100 to 1000 nM.
Same read-out and setting: the value for `CCC1(O)CCCN(C[C@@H](C)[C@H]2CC[C@H]3/C(=C/C=C4C[C@@H](O)C[C@H](O)C4)CCC[C@]23C)C1` (single isomer, unassigned) [Compound C044a] was 10 to 100 nM; that for `CCC1(O)CCCN(C[C@@H](C)[C@H]2CC[C@H]3/C(=C/C=C4C[C@@H](O)C[C@H](O)C4)CCC[C@]23C)C1` (single isomer, unassigned) [Compound C044b] was 100 to 1000 nM; that for `C=C1[C@H](O)CC(=C/C=C2\CCC[C@]3(C)[C@@H]([C@H](C)CN4CCCC(O)(CC)C4)CC[C@@H]23)C[C@H]1O` (single isomer, unassigned) [Compound C046a] was less than 1 nM.
Compound `C=C1[C@H](O)CC(=C/C=C2\CCC[C@]3(C)[C@@H]([C@H](C)CN4CCCC(O)(CC)C4)CC[C@@H]23)C[C@H]1O` (single isomer, unassigned) [Compound C046b] had an EC50 of 1 to 10 nM.
Compound `C=C1[C@H](O)CC(=C/C=C2\CCC[C@]3(C)[C@@H]([C@H](C)CN4CCCC(C)(OC)C4)CC[C@@H]23)C[C@H]1O` (single isomer, unassigned) [Compound C047a] came in with an EC50 of 1 to 10 nM.
Still for that read-out and setting: the value for `C=C1[C@H](O)CC(=C/C=C2\CCC[C@]3(C)[C@@H]([C@H](C)CN4CCCC(C)(OC)C4)CC[C@@H]23)C[C@H]1O` (single isomer, unassigned) [Compound C047b] was 10 to 100 nM; that for `C=C1/C(=C\C=C2/CCC[C@]3(C)[C@@H]([C@H](C)CN4CCOC(C(F)(F)F)C4)CC[C@@H]23)C[C@@H](O)[C@H](C)[C@@H]1O` (single isomer, unassigned) [Compound D009a] was 1 to 10 nM; that for `C=C1/C(=C\C=C2/CCC[C@]3(C)[C@@H]([C@H](C)CN4CCOC(C(F)(F)F)C4)CC[C@@H]23)C[C@@H](O)[C@H](C)[C@@H]1O` (single isomer, unassigned) [Compound D009b] was 10 to 100 nM.
Compound `C=C1/C(=C\C=C2/CCC[C@]3(C)[C@@H](C(C)CN4CC(F)C4)CC[C@@H]23)C[C@@H](O)C[C@@H]1O` (stereo in doubt) [Compound A001, (1R,3S,Z)-5-(2-((1R,3aS,7aR,E)-1-((R)-1-(3-fluoroazetidin-1-yl)propan-2-yl)-7a-methyloctahydro-4H-inden-4-ylidene)ethylidene)-4-methylenecyclohexane-1,3-diol] showed an EC50 of 100 to 1000 nM.
As for `C=C1C(O)CC(=C/C=C2\CCC[C@]3(C)[C@@H]([C@H](C)CN4CC[C@@H](OC(F)(F)F)C4)CC[C@@H]23)C[C@H]1O` (stereo in doubt) [Compound B068, (1R,3S)-5-(2-((1R,3aS,7aR,E)-7a-methyl-1-((S)-1-((R)-3-(trifluoromethoxy)pyrrolidin-1-yl)propan-2-yl)octahydro-4H-inden-4-ylidene)ethylidene)-2-methylenecyclohexane-1,3-diol], the EC50 lay within 1 to 10 nM.
`C[C@H](CN1CC[C@H](OC(F)(F)F)C1)[C@H]1CC[C@H]2/C(=C/C=C3CC(O)C[C@H](O)C3)CCC[C@]12C` (stereo in doubt) [Compound B069, (1R,3S)-5-(2-((1R,3aS,7aR,E)-7a-methyl-1-((S)-1-((S)-3-(trifluoromethoxy)pyrrolidin-1-yl)propan-2-yl)octahydro-4H-inden-4-ylidene)ethylidene)cyclohexane-1,3-diol] showed an EC50 of 10 to 100 nM.
Still for that read-out and setting: the result for `C[C@H](CN1CC[C@](C)(O)C1)[C@H]1CC[C@H]2/C(=C/C=C3CC(O)C[C@H](O)C3)CCC[C@]12C` (stereo in doubt) [Compound B072, (1R,3 S)-5-(2-((1R,3aS,7aR,E)-1-((S)-1-((S)-3-hydroxy-3-methylpyrrolidin-1-yl)propan-2-yl)-7a-methyloctahydro-4H-inden-4-ylidene)ethylidene)cyclohexane-1,3-diol] reads 10 to 100 nM.
As for `C[C@H](CN1CC[C@@](C)(O)C1)[C@H]1CC[C@H]2/C(=C/C=C3CC(O)C[C@H](O)C3)CCC[C@]12C` (stereo in doubt) [Compound B075, (1R,3S)-5-(2-((1R,3aS,7aR,E)-1-((S)-1-((R)-3-hydroxy-3-methylpyrrolidin-1-yl)propan-2-yl)-7a-methyloctahydro-4H-inden-4-ylidene)ethylidene)cyclohexane-1,3-diol], the EC50 is 100 to 1000 nM.

Staying with this assay, now noted: read-out: Activity (EC50, VDR transcription activity); HOS cells transfected with human VDR, human RXRα and DR3 luciferase reporter; 21 hours.
For the compound `C=C1/C(=C\C=C2/CCC[C@]3(C)[C@@H]([C@H](C)CN4CCC(O)(C(F)(F)F)C4)CC[C@@H]23)C[C@@H](O)C[C@@H]1O` (single isomer, unassigned) [Compound B044b], the EC50 was less than 1 nM.
As to `C=C1[C@H](O)CC(=C/C=C2\CCC[C@]3(C)[C@@H]([C@H](C)CN4CCC(O)(C(F)(F)F)C4)CC[C@@H]23)C[C@H]1O` (single isomer, unassigned) [Compound B046b], the EC50 is less than 1 nM.
